# Assay results published in the supplement of paper PMC10307832.
# Tests used:
# Test in all cases: relative viability (nuclei count vs DMSO), 5 days (fraction); higher = more cells survive
# [1] = compound: CC1=CC=C(C=C1)C(=O)CN2C3=C(CCCC3)SC2=N [Pifithrin_alpha] + CC(C)C[C@H](NC(=O)[C@H](Cc1ccccc1)NC(=O)c1cnccn1)B(O)O [Bortezomib] (partner 0.002 µM)
# Outline: (§1)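 Lung cancer cell lines in 1536-well plates were dosed by pin tool the day after seeding, either with one drug alone or with a fixed anchor-drug dose plus five library-drug doses (not always all listed) in √10 steps. After 5 days, cells were fixed and their nuclei stained in one step (final 0.05% Triton X-100, 1% formaldehyde, 1 ug/ml Hoechst), then counted on 4× images. Relative viability is the nuclei count in treated wells divided by that in vehicle wells. Values are medians of duplicate plates.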
# [2] = compound: CC1=CC=C(C=C1)C(=O)CN2C3=C(CCCC3)SC2=N [Pifithrin_alpha] + C[C@]1(O)C[C@@H](c2nc(-c3ccc4ccc(-c5ccccc5)nc4c3)c3c(N)nccn32)C1 [Linsitinib] (partner 1 µM)
# Outline: as §1
# Bemcentinib + Pemetrexed = compound: Nc1nc(Nc2ccc3c(c2)CC[C@@H](N2CCCC2)CC3)nn1-c1cc2c(nn1)-c1ccccc1CCC2 [Bemcentinib] + Nc1nc2[nH]cc(CCc3ccc(C(=O)N[C@@H](CCC(=O)O)C(=O)O)cc3)c2c(=O)[nH]1 [Pemetrexed] (partner 0.2 µM)
# Outline: as §1
# Axitinib + Palbociclib = compound: CNC(=O)c1ccccc1Sc1ccc2c(/C=C/c3ccccn3)n[nH]c2c1 [Axitinib] + CC(=O)c1c(C)c2cnc(Nc3ccc(N4CCNCC4)cn3)nc2n(C2CCCC2)c1=O [Palbociclib] (partner 0.5 µM)
# Outline: as §1
Cell Line,relative viability ([1]; first compound 1 µM),relative viability ([1]; first compound 3.162 µM),relative viability ([1]; first compound 10 µM),relative viability ([1]; first compound 31.62 µM),relative viability ([1]; first compound 100 µM),relative viability ([2]; first compound 1 µM),relative viability ([2]; first compound 3.162 µM),relative viability ([2]; first compound 10 µM),relative viability ([2]; first compound 31.62 µM),relative viability ([2]; first compound 100 µM),relative viability (Bemcentinib + Pemetrexed; first compound 0.04 µM),relative viability (Bemcentinib + Pemetrexed; first compound 0.1265 µM),relative viability (Bemcentinib + Pemetrexed; first compound 0.4 µM),relative viability (Bemcentinib + Pemetrexed; first compound 1.265 µM),relative viability (Bemcentinib + Pemetrexed; first compound 4 µM),relative viability (Axitinib + Palbociclib; first compound 0.005 µM),relative viability (Axitinib + Palbociclib; first compound 0.01581 µM),relative viability (Axitinib + Palbociclib; first compound 0.05 µM),relative viability (Axitinib + Palbociclib; first compound 0.1581 µM),relative viability (Axitinib + Palbociclib; first compound 0.5 µM)
NCI-H1563,0.732,0.697,0.755,0.733,0.78,1.17,1.29,1.04,1.06,1,0.768,0.716,0.844,0.663,0.772,,,,,
EMC-BAC-2,1.07,1.09,0.99,0.8,1.15,0.799,0.859,0.765,0.745,0.927,0.442,0.475,0.48,0.416,0.419,0.522,0.562,0.49,0.508,0.533
NCI-H596,0.969,1.1,1.23,1.03,1.06,1.04,1.2,1.21,1.11,1.16,0.477,0.53,0.55,0.478,0.474,,,,,
NCI-H2009,0.551,0.907,0.942,0.444,0.798,1.25,1.25,1.16,0.822,0.998,1.03,1.07,1.12,1.07,1.01,0.257,0.295,0.203,0.233,0.255
HOP-62,0.92,0.983,0.955,0.514,1.14,1.01,0.979,1.18,0.781,1.07,0.348,0.357,0.385,0.37,0.359,0.469,0.436,0.44,0.45,0.468
NCI-H2126,1.11,1.09,0.925,0.896,0.94,0.696,0.695,0.68,0.661,0.682,0.732,0.671,0.713,0.646,0.831,0.345,0.348,0.347,0.327,0.343
HCC-15,1.1,1.11,0.919,0.772,1.1,0.937,0.977,0.868,0.593,0.894,0.231,0.219,0.226,0.218,0.221,0.764,0.766,0.749,0.703,0.65
NCI-H23,0.917,0.978,1.06,0.61,0.875,0.543,0.546,0.567,0.443,0.515,0.626,0.724,0.941,0.763,0.738,0.458,0.512,0.616,0.483,0.559
LCLC-97TM1,,0.596,0.397,,0.487,,0.207,0.206,,0.225,0.16,0.177,0.182,0.177,0.177,0.27,0.263,0.199,0.201,0.239
SW 1573,1.01,0.98,1.13,0.899,1.14,0.82,0.713,0.698,0.768,0.758,0.944,0.865,0.89,0.839,0.725,0.36,0.448,0.395,0.384,0.473
EKVX,1.07,0.94,0.768,0.607,0.648,1.05,0.644,0.705,0.615,0.739,0.355,0.42,0.422,0.401,0.333,0.402,0.368,0.433,0.381,0.358
HCC-44,0.916,0.851,0.793,0.68,0.652,0.571,0.607,0.64,0.441,0.578,0.676,0.665,0.684,0.723,0.679,0.946,0.967,0.988,0.96,1.04
NCI-H1651,0.857,0.929,0.916,0.88,1.02,0.997,1.13,0.892,0.709,1.02,0.548,0.592,0.646,0.475,0.614,0.597,0.542,0.471,0.514,0.544
COR-L23,1.01,0.928,0.973,,0.908,0.974,1.02,0.882,,0.871,0.195,0.204,0.204,0.19,0.202,0.322,0.297,0.323,0.303,0.331
NCI-H1299,1.08,1.02,1.02,0.896,1.03,1.04,1.09,1.01,0.813,0.998,,,,,,,,,,
NCI-H1734,1.1,0.928,0.899,0.7,0.817,0.994,0.89,0.862,0.611,0.889,0.419,0.459,0.398,0.402,0.448,0.35,0.373,0.345,0.334,0.425
NCI-H1793,,,,,,0.896,0.7,0.812,0.787,0.964,0.853,1.05,0.933,0.853,0.813,0.285,0.259,0.369,0.285,0.346
NCI-H522,,,,,,,,,,,1.03,0.908,0.897,1.04,1.18,0.892,0.966,1.01,1.05,0.915
LU99A,1.09,1.24,1.19,,1.24,0.539,0.64,0.619,,0.529,0.139,0.321,0.241,0.154,0.16,0.408,0.416,0.394,0.438,0.417
NCI-H1437,0.567,0.363,0.401,0.319,0.281,1.14,1.24,0.893,0.564,0.54,0.305,0.323,0.322,0.362,0.331,0.353,0.283,0.346,0.307,0.313
NCI-H460,1.51,1.14,0.661,,0.438,0.764,0.795,0.906,,0.563,0.0651,0.0562,0.0565,0.0602,0.0631,0.154,0.211,0.143,0.145,0.319

Cell Line,relative viability ([1]; first compound 1 µM),relative viability ([1]; first compound 3.162 µM),relative viability ([1]; first compound 10 µM),relative viability ([1]; first compound 31.62 µM),relative viability ([1]; first compound 100 µM),relative viability ([2]; first compound 1 µM),relative viability ([2]; first compound 3.162 µM),relative viability ([2]; first compound 10 µM),relative viability ([2]; first compound 31.62 µM),relative viability ([2]; first compound 100 µM),relative viability (Bemcentinib + Pemetrexed; first compound 0.04 µM),relative viability (Bemcentinib + Pemetrexed; first compound 0.1265 µM),relative viability (Bemcentinib + Pemetrexed; first compound 0.4 µM),relative viability (Bemcentinib + Pemetrexed; first compound 1.265 µM),relative viability (Bemcentinib + Pemetrexed; first compound 4 µM),relative viability (Axitinib + Palbociclib; first compound 0.005 µM),relative viability (Axitinib + Palbociclib; first compound 0.01581 µM),relative viability (Axitinib + Palbociclib; first compound 0.05 µM),relative viability (Axitinib + Palbociclib; first compound 0.1581 µM),relative viability (Axitinib + Palbociclib; first compound 0.5 µM)
NCI-H1395,,,,,,,1.05,1.03,0.638,0.974,,1.03,0.903,0.797,0.82,0.594,0.509,0.507,0.579,0.711
NCI-H2085,0.993,1.07,1.01,0.878,1,0.829,0.934,0.768,0.797,0.859,0.857,0.945,0.861,0.876,0.714,0.495,0.482,0.454,0.487,0.452
NCI-H1703,0.416,0.344,0.368,0.288,0.279,0.596,0.6,0.786,0.733,0.635,,,,,,,,,,
HCC-366,1.33,0.706,1.07,,1.1,0.512,0.508,0.581,,0.469,0.175,0.185,0.179,0.173,0.157,0.438,0.378,0.399,0.36,0.524
NCI-H1648,,,,,,,,,,,0.717,0.761,0.818,0.697,0.841,0.215,0.291,0.219,0.273,0.235
ChaGo-K-1,0.962,1.21,0.944,0.711,0.986,,,,,,0.265,0.262,0.274,0.244,0.251,0.88,0.947,0.972,0.863,1
NCI-H358,,,,,,0.777,0.83,0.671,0.547,0.541,0.176,0.177,0.166,0.187,0.179,0.17,0.159,0.143,0.129,0.13
Calu-6,1.07,1.04,0.899,0.569,0.881,0.932,1.05,0.997,,0.848,,,,,,,,,,
EBC-1,0.512,0.411,0.437,0.354,0.287,0.912,0.878,0.861,0.561,0.576,,,,,,,,,,
NCI-H1650,0.182,0.202,0.18,0.189,0.169,,,,,,0.327,0.337,0.414,0.391,0.364,0.423,0.322,0.412,0.313,0.486
NCI-H727,0.786,0.958,0.696,0.446,0.793,0.295,0.312,0.271,0.293,0.217,,,,,,0.597,0.66,0.596,0.673,0.613
IA-LM,0.984,0.415,0.281,0.33,0.339,0.784,0.554,0.272,0.501,0.267,,,,,,,,,,
NCI-H2342,,,,,,,,,,,0.703,0.805,0.823,0.728,0.787,0.503,0.524,0.536,0.614,0.485
ABC-1,0.322,0.351,0.328,0.26,0.298,0.9,0.651,0.621,0.593,0.506,,,,,,0.756,,0.632,0.626,0.854
SK-MES-1,,,,,,1,1.01,0.93,0.737,0.921,0.958,1.1,0.987,1.03,0.967,0.309,0.332,0.347,0.344,0.353
SW 900,,,,,,,,,,,0.492,0.541,0.485,0.433,0.48,0.629,,0.587,0.502,0.6
LK-2,,,,,,0.608,0.728,0.544,,0.646,0.246,0.323,0.294,0.256,0.294,0.492,0.661,0.544,0.659,0.668
NCI-H2170,,,,,,,,,,,0.264,0.278,0.283,0.244,0.264,0.494,0.438,0.385,0.444,0.435
A549,,,,,,,0.582,0.595,0.458,0.71,,,,,,,,,,
NCI-H1944,,,,,,1.18,1.23,1.11,,1.04,0.633,0.66,0.649,0.589,0.634,0.365,0.342,0.328,0.318,0.307
